Where “and” joins values, the source holds several entries; their conditions need not be identical. Equal entries are not always repeated. Where two headings read alike, the source gives them in different places.
How the values were obtained:
TNFα = TNFα quantification by ELISA in human oral mucosa organotypic culture stimulated by substance P; format: cell-based
Procedure: Biopsy samples of clinically healthy non keratinised human oral mucosa were obtained from patients undergoing surgery.
Small biopsies (explant size: 5 mm^2 surface and 3 mm thickness and about 15 to 20 mg weight) were transferred onto permeable polycarbonate membrane transwells (12 mm diameter, 12 μm pore size) in a well of a 12 well plate (as previously described Boisnic S. et al., 2003 and 2006) containing 700 μl of defined medium (DMEM, antibiotics, hormones, pituitary extract, SVF). For each donor, the gingival biopsy was cut to obtain the same weight so that to have comparison between different conditions tested. Explants were maintained at the interface between air and medium: the oral mucosa epithelium was in contact with air and the chorion was exposed to the media by diffusion through the porous polycarbonate membrane.
Cohesion between gingival fragment and insert was obtained with a polyvinylsiloxane addition type silicone elastomer seal (Coltene® president) in such a way that no gingival retraction or lateral passage of the product towards the dermis was possible. The culture was set up for 2 days in a humidified atmosphere containing 5% CO2 at 37° C.
The stimulation of the experimental oral mucosa inflammatory process was done by the neuropeptide substance P (SP) (Boisnic et al., 2003).
The neuropetide SP ([SP]=10 μM) was added (or not) to the culture medium in order to simulate the mucositis pro-inflammatory process. SP was in contact with the mucosal chorion after diffusion through the porous membrane.
The cell culture lasted two days (“D0” for the first day and “D1” for the second day).
Therefore the clonidine treatment was done before and during substance P stimulation.
Removed D1 culture medium in each well; aliquot it in 7 samples of 100 μl and store at −80° C. for cytokines release analysis.
At the end of each culture all the human oral mucosa explants were weighed (cytokines release expressed as pg/mg of cultured oral mucosa explants).
Mean values and standard deviations were calculated for each parameter. The statistical significance of changes recorded in the parameters were determined with unpaired Mann-Whitney U test (p<0.05).

mucositis in hamsters = conditions: for mucositis severity, daily scores vs vehicle control (Mann-Whitney rank sum): day −1 to 20; for average weight gain, % of starting weight: days −1 to 20, topical; for animal days with mucositis score of 3 or higher / peak mean mucositis score: days −1 to 20; for peak mean mucositis score: peak on day 16, scale 0-5; for course and severity of mucositis, comparison of schedules: day −1 to 20, topical
Procedure: Thirty-two (32) male Syrian Golden Hamsters were randomly assigned to four (4) equally-sized groups. […] All agents were administered topically. On study day 0, each hamster was irradiated with a single dose of 40 Gy directed to the left buccal cheek pouch. Animals were subsequently weighed and observed daily. Beginning on day 6 and continuing on alternate days for the duration of the study, images of the left cheek pouch mucosa was obtained. At the conclusion of the in-life phase of the study, the images were scored for mucositis severity using a validated scale and the number of days of ulcerative mucositis was assessed using a Chi-squared test of scores of ≧3 throughout the study. The individual daily group scores were evaluated using a rank sum test.
Mucositis was induced using a standardized acute radiation protocol. A single dose of radiation (40 Gy/dose) was administered to all animals on day 0. Radiation was generated with a 160 kilovolt potential (15-ma) source at a focal distance of 40 cm, hardened with a 0.35 mm Al filtration system. Irradiation targeted the left buccal pouch mucosa at a rate of 2.5 Gy/minute. Prior to irradiation, animals were anesthetized with an intraperitoneal injection of Ketamine (160 mg/ml) and Xylazine (8 mg/ml). The left buccal pouch was everted, fixed and isolated using a lead shield.
For the evaluation of mucositis, the animals were anesthetized with an Inhalation anesthetic, and the left pouch everted. Mucositis was scored visually by comparison to a validated photographic scale, ranging from 0 for normal, to 5 for severe ulceration (clinical scoring). In descriptive terms, this scale is defined in Table 2:
A score of 1-2 is considered to represent a mild stage of the disease, whereas a score of 3-5 is considered to indicate moderate to severe mucositis. Following visual scoring, a photograph was taken of each animal's mucosa using a standardized technique. At the conclusion of the experiment, all films were developed and the photographs randomly numbered. At least two independent trained observers graded the photographs in blinded fashion using the above-described scale (blinded scoring).
Test materials were given by topical administration directed to the left cheek pouch daily as detailed in Table 3.
to day 20. Animals in Groups 1, 3 and 4 were dosed at 6 am, 11 am, 4 pm and 9 pm. Animals in Group 2 were dosed at 6 am.
Mucositis was evaluated clinically starting on Day 6, and continuing on alternate days until day 28.

Molecule: SP: neuropeptide substance P added to culture medium to simulate the mucositis pro-inflammatory process
- TNFα quantification by ELISA (TNFα; gingiva + SP 10 μM, no clonidine (positive control)): 1.7 ± 1.09 (# p = 0.0056) pg/mg
- TNFα quantification by ELISA (TNFα; gingiva + SP 10 μM, no clonidine (positive control), listed as substance P): 1.7 pg/mg

Molecule: Clc1cccc(Cl)c1NC1=NCCN1 [clonidine, N-(2,6-dichlorophenyl)-4,5-dihydro-1H-imidazol-2-amine]
- anti-inflammatory effect on gingiva stimulated by SP (TNFα; doses 0.009, 0.03, 0.09 and 0.3 μg/ml): No significant anti-inflammatory effect
- TNFα quantification by ELISA (TNFα; gingiva + SP, 0.009 μg/ml clonidine): 1.14 ± 0.7 pg/mg
- TNFα quantification by ELISA (TNFα; gingiva + SP, 0.03 μg/ml clonidine): 1.02 ± 0.4 pg/mg
- TNFα quantification by ELISA (TNFα; gingiva + SP, 0.09 μg/ml clonidine): 1.08 ± 0.29 pg/mg
- TNFα quantification by ELISA (TNFα; gingiva + SP, 0.3 μg/ml clonidine): 0.86 ± 0.4 pg/mg
- TNFα quantification by ELISA (TNFα; gingiva + SP, 0.9 μg/ml clonidine): 0.74 pg/mg and 0.74 ± 0.36 (* p = 0.0106) pg/mg
- TNFα quantification by ELISA (TNFα; gingiva + SP, 3 μg/ml clonidine): 0.67 pg/mg and 0.67 ± 0.27 (* p = 0.0056) pg/mg
- TNFα quantification by ELISA (TNFα; gingiva without SP, 3 μg/ml clonidine): 0.83 ± 0.40 pg/mg
- TNFα quantification by ELISA (TNFα; gingiva without SP, 3 μg/ml clonidine, listed as Clonidine): 0.83 pg/mg
- mucositis severity, daily scores vs vehicle control (Mann-Whitney rank sum) (mucositis in hamsters; 12.5 μg/kg 4 times daily, days 20, 22 and 24): significantly lower mucositis scores than the vehicle controls
- mucositis severity, daily scores vs vehicle control (Mann-Whitney rank sum) (mucositis in hamsters; 12.5 μg/kg 4 times daily, days 20, 22 and 24, listed as Clonidine): significantly reduced the severity of mucositis
- average weight gain, % of starting weight (mucositis in hamsters; 12.5 μg/kg 4 times daily): 46.1%
- animal days with mucositis score of 3 or higher (mucositis in hamsters; 12.5 μg/kg 4 times daily, p=0.047 vs vehicle): 26.0%
- peak mean mucositis score (mucositis in hamsters; 12.5 μg/kg 4 times daily): 3.0
- mucositis severity, daily scores vs vehicle control (Mann-Whitney rank sum) (mucositis in hamsters; 25 μg/kg 4 times daily, days 6 and 14): significantly lower mucositis scores than the vehicle controls
- mucositis severity, daily scores vs vehicle control (Mann-Whitney rank sum) (mucositis in hamsters; 25 μg/kg 4 times daily, days 6 and 14, listed as Clonidine): significantly reduced the severity of mucositis
- average weight gain, % of starting weight (mucositis in hamsters; 25 μg/kg 4 times daily): 45.0%
- animal days with mucositis score of 3 or higher (mucositis in hamsters; 25 μg/kg 4 times daily, p=0.125 vs vehicle): 28.1%
- peak mean mucositis score (mucositis in hamsters; 25 μg/kg 4 times daily): 3.1
- course and severity of mucositis, comparison of schedules (mucositis in hamsters; 100 μg/kg once daily): superior to the other concentrations and schedules tested
- course and severity of mucositis, comparison of schedules (mucositis in hamsters; 100 μg/kg once daily, listed as Clonidine): favorably altered the course and severity of mucositis
- mucositis severity, daily scores vs vehicle control (Mann-Whitney rank sum) (mucositis in hamsters; 100 μg/kg once daily, days 16, 20 and 22): significantly different than the vehicle control group
- mucositis severity, daily scores vs vehicle control (Mann-Whitney rank sum) (mucositis in hamsters; 100 μg/kg once daily, days 16, 20 and 22, listed as Clonidine): significantly reduced the severity of mucositis
- average weight gain, % of starting weight (mucositis in hamsters; 100 μg/kg once daily): 51.3%
- animal days with mucositis score of 3 or higher (mucositis in hamsters; 100 μg/kg once daily, p=0.003 vs vehicle): 21.9%
- peak mean mucositis score (mucositis in hamsters; 100 μg/kg once daily): 2.8
- severity of mucositis based on mucositis score area under the curve (mucositis in hamsters; all three treatment groups, p=0.0007): severity of mucositis was reduced
- adverse reaction to treatment (mucositis in hamsters; any of the doses tested): no evidence of any significant adverse reaction

Reference: patent US9192599B2, “Treating inflammation and inflammatory pain in mucosa using mucosal prolonged release bioadhesive therapeutic carriers” (Onxeo S.A., priority 2008, dated 2015)
